The source made the active and inactive calls.
Columns and labels:
[1] = target: Glucose-6-phosphate 1-dehydrogenase (Homo sapiens, UniProt P11413); assay: inhibition of Homo sapiens G6PD, dose series – biochemical, fluorescence, selectivity assay for P. falciparum G6PD inhibitor project, dose response (AID 504792); assay type: functional
[2] = target: DNA dC->dU-editing enzyme APOBEC-3G (Homo sapiens, UniProt Q9HC16); assay: Dose Response confirmation of small molecule APOBEC3G DNA Deaminase Inhibitors via a fluorescence-based single-stranded DNA deaminase assay. [Related pubchem assays (depositor defined):AID493012, AID493028]; assay type: functional
Chain of DNA dC->dU-editing enzyme APOBEC-3G (Q9HC16 whole entry): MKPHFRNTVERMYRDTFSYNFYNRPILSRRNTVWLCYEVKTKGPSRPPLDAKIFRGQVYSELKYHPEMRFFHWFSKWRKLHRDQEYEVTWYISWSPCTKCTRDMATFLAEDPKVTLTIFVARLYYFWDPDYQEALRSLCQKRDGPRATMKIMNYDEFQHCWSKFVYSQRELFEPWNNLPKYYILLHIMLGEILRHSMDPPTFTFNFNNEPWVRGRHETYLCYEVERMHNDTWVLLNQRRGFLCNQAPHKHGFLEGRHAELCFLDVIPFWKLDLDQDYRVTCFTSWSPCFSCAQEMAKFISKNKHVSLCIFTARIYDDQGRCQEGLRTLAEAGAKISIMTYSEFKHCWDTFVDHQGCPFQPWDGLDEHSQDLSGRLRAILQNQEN

[3] = fluconazole-exposed Candida albicans growth modulators – fluorescence, retest, confirmation (AID 2467); assay type: functional, cell-based
[4] = target: Heat shock protein HSP 90-alpha (Homo sapiens, UniProt P07900); assay type: functional, organism-based
Bcl-2-related protein A1 = target: T1, Bcl-2-related protein A1 (Mus musculus, UniProt Q07440); assay type: functional;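 note: confirmatory dose–response counterscreen on Bfl-1, used to check hits from a UBC13 polyubiquitin inhibitor campaign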
T1 sequence (Q07440 whole entry): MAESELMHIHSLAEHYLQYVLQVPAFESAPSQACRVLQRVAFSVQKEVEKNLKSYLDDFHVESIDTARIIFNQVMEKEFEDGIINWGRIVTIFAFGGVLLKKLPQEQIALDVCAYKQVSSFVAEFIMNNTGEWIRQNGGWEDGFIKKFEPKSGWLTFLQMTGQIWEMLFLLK

[5] = target: T2, Serine/threonine-protein phosphatase (Candida dubliniensis (strain CD36 / CBS 7987 / NCPF 3949 / NRRLY-17841) (Yeast), UniProt B9W6M3); assay: blockers of CaCl2-induced CDRE-lacZ signaling – S. cerevisiae, luminescence, secondary, dose response (AID 2388); assay type: functional, cell-based;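 note: yeast reporter cells carrying a calcineurin-responsive lacZ construct stimulated with calcium chloride; luminescent beta-galactosidase reporter signal in whole cells rather than isolated phosphatase activity; potency for inhibition where a drop in reporter signal means calcineurin blockade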
T2 sequence (B9W6M3 whole entry): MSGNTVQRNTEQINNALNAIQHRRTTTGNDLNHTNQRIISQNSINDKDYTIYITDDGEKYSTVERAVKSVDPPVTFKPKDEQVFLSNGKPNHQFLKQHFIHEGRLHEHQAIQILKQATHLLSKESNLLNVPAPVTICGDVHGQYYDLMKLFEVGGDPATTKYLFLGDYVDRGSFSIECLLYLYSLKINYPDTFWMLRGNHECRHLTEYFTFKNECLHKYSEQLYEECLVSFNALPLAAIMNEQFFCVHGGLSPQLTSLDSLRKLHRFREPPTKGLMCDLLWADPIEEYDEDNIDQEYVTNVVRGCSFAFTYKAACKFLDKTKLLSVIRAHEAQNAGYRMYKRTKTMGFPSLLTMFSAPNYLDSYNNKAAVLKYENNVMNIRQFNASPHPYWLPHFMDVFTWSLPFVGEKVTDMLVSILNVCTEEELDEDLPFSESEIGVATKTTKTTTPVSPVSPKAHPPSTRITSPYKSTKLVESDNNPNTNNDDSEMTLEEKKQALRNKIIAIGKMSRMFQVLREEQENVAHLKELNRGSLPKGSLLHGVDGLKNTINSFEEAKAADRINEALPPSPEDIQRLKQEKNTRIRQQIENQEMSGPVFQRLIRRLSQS

[6] = target: T3, Ubiquitin-conjugating enzyme E2 N (Homo sapiens, UniProt P61088); assay type: functional
T3 sequence (P61088 whole entry): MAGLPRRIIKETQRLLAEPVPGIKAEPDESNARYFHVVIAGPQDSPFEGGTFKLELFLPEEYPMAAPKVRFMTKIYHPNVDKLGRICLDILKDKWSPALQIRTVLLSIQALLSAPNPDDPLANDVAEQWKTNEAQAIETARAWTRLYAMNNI

[7] = target: T3, Ubiquitin-conjugating enzyme E2 N; assay type: functional; remark: listed apart in the source
[8] = NIH-3T3 fibroblast cytotoxicity, dose response, cytotoxicity control, cell-based, fluorescence, Alamar Blue, secondary assay (AID 2327); assay type: functional;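 note: NIH-3T3 mouse fibroblasts cultured with fluconazole at 8 µg/mL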
[9] = target: ATP-dependent molecular chaperone HSP82 (Candida albicans (strain WO-1) (Yeast), UniProt C4YTQ8); assay: steroid-induced GRE reporter decrease in yeast – S. cerevisiae, luminescence, Hsp90 inhibitor project, dose response (AID 2400); assay type: functional, cell-based;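 note: beta-galactosidase luminescence from glucocorticoid response element reporter as proxy for Hsp90 function; inhibitor potency where signal loss means Hsp90 inhibition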
Chain of ATP-dependent molecular chaperone HSP82 (C4YTQ8 whole entry): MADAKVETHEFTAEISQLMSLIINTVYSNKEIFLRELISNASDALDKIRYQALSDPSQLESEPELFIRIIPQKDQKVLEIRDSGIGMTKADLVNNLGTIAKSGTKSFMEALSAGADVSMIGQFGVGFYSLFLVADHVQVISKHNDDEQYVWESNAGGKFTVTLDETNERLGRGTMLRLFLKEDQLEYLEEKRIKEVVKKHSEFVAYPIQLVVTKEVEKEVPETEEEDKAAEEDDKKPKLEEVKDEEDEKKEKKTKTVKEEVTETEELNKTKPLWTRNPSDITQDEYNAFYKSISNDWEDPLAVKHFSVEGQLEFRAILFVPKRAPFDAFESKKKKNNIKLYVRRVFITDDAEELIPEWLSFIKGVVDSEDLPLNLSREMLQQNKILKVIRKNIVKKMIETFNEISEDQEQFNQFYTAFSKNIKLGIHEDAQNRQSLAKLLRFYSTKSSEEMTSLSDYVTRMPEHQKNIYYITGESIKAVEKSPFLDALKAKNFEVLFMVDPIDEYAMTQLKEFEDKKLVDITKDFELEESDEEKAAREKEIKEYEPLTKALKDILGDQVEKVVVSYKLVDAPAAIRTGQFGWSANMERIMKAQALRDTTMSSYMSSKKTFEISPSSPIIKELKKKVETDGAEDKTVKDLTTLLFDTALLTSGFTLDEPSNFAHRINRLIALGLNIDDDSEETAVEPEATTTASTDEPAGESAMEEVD

Coagulation factor XII = target: T4, Coagulation factor XII (Homo sapiens, UniProt P00748); assay type: functional;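 note: activated factor XIIa alpha cleaving a fluorogenic AMC peptide substrate; inhibitor potency from loss of enzyme activity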
T4 sequence (P00748 whole entry): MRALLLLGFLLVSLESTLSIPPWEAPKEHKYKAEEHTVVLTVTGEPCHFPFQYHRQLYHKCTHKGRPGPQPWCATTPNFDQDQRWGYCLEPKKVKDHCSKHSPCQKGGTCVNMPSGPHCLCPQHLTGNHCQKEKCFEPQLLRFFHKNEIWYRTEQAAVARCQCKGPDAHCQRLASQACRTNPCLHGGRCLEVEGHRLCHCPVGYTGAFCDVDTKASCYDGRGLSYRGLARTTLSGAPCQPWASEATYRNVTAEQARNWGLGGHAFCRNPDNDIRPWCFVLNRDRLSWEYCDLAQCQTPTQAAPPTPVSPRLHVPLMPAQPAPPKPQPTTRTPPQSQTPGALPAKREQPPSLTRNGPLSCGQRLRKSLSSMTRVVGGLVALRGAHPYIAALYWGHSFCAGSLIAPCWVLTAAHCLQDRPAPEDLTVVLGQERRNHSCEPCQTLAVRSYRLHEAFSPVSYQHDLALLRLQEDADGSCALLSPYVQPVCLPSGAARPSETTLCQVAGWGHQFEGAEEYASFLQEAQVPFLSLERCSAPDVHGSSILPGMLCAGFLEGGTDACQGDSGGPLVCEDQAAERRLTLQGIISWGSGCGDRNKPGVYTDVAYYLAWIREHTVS

[10] = target: FAD-linked sulfhydryl oxidase ALR (Homo sapiens, UniProt P55789); assay: ALR-catalysed DTT oxidation blockers – biochemical, H2O2 detection, luminescence, cherry-pick, dose response (AID 493248)
Chain of FAD-linked sulfhydryl oxidase ALR (P55789 whole entry): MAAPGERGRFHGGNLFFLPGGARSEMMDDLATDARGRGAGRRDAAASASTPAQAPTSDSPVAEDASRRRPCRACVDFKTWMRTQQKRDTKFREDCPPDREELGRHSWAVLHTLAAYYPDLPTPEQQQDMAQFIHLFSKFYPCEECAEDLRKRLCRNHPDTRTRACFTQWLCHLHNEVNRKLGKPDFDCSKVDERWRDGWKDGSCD

Genome polyprotein = Genome polyprotein (dengue virus type 2, UniProt P29990); assay: flavivirus cap methylation enzyme inhibition – biochemical, confirmation dose response, primary screen (AID 588689); assay type: functional
Chain of Genome polyprotein (P29990 2492-3391 limits assumed): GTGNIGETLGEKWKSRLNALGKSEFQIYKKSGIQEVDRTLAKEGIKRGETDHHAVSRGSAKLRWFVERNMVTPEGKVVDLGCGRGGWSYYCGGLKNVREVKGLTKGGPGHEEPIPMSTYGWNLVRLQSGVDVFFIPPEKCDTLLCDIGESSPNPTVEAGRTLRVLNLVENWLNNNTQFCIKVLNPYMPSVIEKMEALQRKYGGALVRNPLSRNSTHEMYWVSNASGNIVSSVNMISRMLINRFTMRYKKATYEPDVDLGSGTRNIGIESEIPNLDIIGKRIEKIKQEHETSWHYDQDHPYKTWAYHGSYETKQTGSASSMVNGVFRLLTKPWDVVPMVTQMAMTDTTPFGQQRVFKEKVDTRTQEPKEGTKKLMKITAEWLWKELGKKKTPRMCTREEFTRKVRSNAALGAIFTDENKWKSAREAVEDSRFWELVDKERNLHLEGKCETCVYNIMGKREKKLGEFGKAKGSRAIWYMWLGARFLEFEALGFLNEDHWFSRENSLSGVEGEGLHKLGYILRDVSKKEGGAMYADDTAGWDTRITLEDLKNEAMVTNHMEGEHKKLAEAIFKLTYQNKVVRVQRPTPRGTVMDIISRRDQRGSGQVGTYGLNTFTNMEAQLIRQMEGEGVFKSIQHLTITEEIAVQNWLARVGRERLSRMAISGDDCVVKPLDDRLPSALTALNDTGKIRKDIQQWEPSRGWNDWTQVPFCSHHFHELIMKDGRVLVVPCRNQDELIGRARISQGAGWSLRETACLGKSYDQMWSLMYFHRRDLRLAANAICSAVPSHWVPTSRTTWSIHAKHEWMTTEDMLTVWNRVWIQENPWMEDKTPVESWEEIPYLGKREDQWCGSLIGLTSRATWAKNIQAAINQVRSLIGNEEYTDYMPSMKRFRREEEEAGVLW

[11] = target: Delta-type opioid receptor (Homo sapiens, UniProt P41143); assay: Counterscreen for agonists of heterodimerization of the mu 1 (OPRM1) and delta 1 (OPRD1) opioid receptors: Luminescence-based cell-based high throughput dose response assay to identify agonists of OPRD1 homodimerization. [Related pubchem assays (depositor defined):AID504326, AID504355, AID504692, AID504904, AID504905]; assay type: functional
Chain of Delta-type opioid receptor (P41143 whole entry): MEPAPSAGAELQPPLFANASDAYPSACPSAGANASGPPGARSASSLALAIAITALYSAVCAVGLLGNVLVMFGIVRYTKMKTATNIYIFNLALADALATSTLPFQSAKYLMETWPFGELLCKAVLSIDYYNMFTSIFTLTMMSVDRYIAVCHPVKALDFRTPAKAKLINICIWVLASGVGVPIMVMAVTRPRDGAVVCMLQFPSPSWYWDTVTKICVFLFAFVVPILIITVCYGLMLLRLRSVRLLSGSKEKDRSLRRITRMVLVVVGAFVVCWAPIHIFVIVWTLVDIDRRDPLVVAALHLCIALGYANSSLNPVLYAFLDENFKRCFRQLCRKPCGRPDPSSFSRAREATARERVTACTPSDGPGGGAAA

[12] = target: 5-hydroxytryptamine receptor 5A (Homo sapiens, UniProt P47898); assay: Counterscreen for agonists of OPRM1-OPRD1 heterodimerization: luminescence-based cell-based high throughput dose response assay to identify agonists of 5-hydroxytryptamine (serotonin) 5A receptor (HTR5A). [Related pubchem assays (depositor defined):AID504326, AID504355, AID504692, AID504904, AID504905]; assay type: functional
Chain of 5-hydroxytryptamine receptor 5A (P47898 whole entry): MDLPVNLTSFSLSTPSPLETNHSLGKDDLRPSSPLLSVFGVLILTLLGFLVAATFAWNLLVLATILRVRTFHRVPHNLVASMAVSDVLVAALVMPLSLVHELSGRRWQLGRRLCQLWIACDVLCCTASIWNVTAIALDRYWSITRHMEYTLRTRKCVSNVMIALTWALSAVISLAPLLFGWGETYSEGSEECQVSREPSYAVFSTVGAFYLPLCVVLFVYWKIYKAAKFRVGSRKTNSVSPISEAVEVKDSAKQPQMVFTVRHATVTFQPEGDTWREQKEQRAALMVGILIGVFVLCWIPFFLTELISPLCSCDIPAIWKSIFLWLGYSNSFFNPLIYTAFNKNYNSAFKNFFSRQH

Mu-type opioid receptor = Mu-type opioid receptor (Homo sapiens, UniProt P35372); assay: Counterscreen for agonists of heterodimerization of the mu 1 (OPRM1) and delta 1 (OPRD1) opioid receptors: Luminescence-based cell-based high throughput dose response assay to identify agonists of OPRM1 homodimerization.; assay type: functional;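 note: U2OS cells expressing OPRM1 and beta-arrestin as split beta-galactosidase partners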
Chain of Mu-type opioid receptor (P35372 whole entry): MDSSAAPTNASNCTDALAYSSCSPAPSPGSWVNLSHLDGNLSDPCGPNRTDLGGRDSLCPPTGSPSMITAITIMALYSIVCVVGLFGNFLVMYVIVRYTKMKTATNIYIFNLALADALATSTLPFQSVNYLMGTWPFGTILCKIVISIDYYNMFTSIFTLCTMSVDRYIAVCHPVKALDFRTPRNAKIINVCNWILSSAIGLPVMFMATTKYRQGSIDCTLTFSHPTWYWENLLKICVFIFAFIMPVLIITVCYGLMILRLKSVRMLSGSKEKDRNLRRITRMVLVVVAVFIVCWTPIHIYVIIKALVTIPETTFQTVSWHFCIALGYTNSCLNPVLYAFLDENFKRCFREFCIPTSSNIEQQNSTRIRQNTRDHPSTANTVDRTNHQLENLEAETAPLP

Chain of Glucose-6-phosphate 1-dehydrogenase (P11413 whole entry): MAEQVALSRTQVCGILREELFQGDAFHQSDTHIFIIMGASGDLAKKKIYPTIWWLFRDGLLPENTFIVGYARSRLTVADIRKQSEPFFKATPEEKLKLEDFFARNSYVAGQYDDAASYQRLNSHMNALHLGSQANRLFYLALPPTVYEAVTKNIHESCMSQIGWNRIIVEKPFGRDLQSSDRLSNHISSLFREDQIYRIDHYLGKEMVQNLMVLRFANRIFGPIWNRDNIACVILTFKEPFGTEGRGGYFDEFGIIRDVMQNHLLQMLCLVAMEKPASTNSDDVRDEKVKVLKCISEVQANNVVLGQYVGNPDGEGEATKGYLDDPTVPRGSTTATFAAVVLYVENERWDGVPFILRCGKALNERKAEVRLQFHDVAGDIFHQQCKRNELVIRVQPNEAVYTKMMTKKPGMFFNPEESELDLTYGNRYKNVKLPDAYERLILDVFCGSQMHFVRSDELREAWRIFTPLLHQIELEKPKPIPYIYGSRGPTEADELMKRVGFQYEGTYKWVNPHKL

SMILES: CCN(CC)c1ccc(NC(=O)c2cccc(C)c2)cc1S(=O)(=O)Nc1ccccc1OC
- IC50 [1]: > 80 µM (inactive)
- IC50 [2]: 51.5 µM (active)

SMILES: Cc1ccc(OCC(=O)NNC(=S)NC(=O)C2CC2)c(C)c1
- EC50 [3]: 1.25 µM (active)
- AC50 [4]: 4.32 µM (active)
- IC50 (Bcl-2-related protein A1): > 20 µM (inactive)
- EC50 [5]: > 180 µM (inactive)
- IC50 [6]: 1.59 µM (active)
- IC50 [7]: 3.27 µM (active)
- EC50 [8]: > 150 µM (inactive)
- EC50 [9]: 14.3 µM (active)

SMILES: O=C(CCCN1C(=O)c2cccc3cccc(c23)C1=O)NCc1cccnc1
- IC50 (Coagulation factor XII): > 50 µM (inactive)

SMILES: NS(=O)(=O)c1ccc(-c2ccc(C=C3C(=O)NC(=O)NC3=O)o2)cc1
- AC50 [10]: 1.16 µM (active)
- IC50 (Genome polyprotein): > 100 µM (active)
- IC50 [1]: 27.4 µM (inactive)

SMILES: CCOC(=O)C1(CCOc2ccccc2)CCN(Cc2ccc(C)s2)CC1
- EC50 [11]: > 92.5 µM (inactive)
- EC50 [12]: > 92.5 µM (inactive)
- EC50 (Mu-type opioid receptor): > 92.5 µM (inactive)
